According to ChEMBL document CHEMBL1201862, “PubChem BioAssay data set” (2004):
The source made the active and inactive calls.

Assays:
[1] = P. falciparum ATP4 D1247Y mutant growth inhibitors, dose response, NITD609-resistant line, SYBR Green, dry powder (AID 1159571); format: functional, cell-based;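 note: parasites synchronized at ring stage by sorbitol before testing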
[2] = P. falciparum Dd2 growth inhibitors, dose response, SYBR Green, cherry-picked samples (AID 1159567); format: functional, cell-based
[3] = P. falciparum Dd2 growth inhibitors, dose response, SYBR Green, dry powder samples (AID 1159566); format: functional, cell-based;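 note: potency for growth inhibition with lower SYBR green DNA signal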
[4] = P. falciparum 3D7-ScDHODH growth inhibitors, dose response, SYBR Green, dry powder samples (AID 1159570); format: functional, cell-based;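 note: parasite growth measured after 72 hours of compound exposure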
[5] = HepG2 cell cytotoxicity, dose response, cytotoxicity control, plate reader, dry powder samples (AID 1159569); format: functional, cell-based;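 note: inhibitor potency with signal falling toward the positive control level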
[6] = biological target: T1, Type-1 angiotensin II receptor (Homo sapiens, UniProt P30556); assay: AT1 receptor antagonists, dose response, selectivity assay for APJ receptor antagonist project, cell-based, uHTS hits (AID 463214); format: functional;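 note: antagonist potency against angiotensin II stimulated AT1 response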
T1 sequence (P30556 whole entry): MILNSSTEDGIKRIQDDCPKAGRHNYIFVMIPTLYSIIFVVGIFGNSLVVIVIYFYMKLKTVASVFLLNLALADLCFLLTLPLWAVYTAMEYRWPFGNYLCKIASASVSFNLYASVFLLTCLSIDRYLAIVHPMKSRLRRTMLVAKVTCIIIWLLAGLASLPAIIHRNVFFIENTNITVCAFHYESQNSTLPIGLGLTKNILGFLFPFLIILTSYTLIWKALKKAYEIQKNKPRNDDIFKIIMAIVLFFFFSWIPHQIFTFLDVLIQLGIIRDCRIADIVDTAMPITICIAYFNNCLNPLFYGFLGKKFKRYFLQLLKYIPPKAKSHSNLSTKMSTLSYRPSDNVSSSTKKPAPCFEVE

Mu-type opioid receptor = Mu-type opioid receptor (Homo sapiens, UniProt P35372); assay: HTS Image-Based Screen for Agonists of the MOR Receptor. [Related pubchem assays (depositor defined):AID1777, AID1785, AID1786, AID2133]; format: functional;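 note: imaging of beta-arrestin GFP recruitment into spots after receptor activation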
[7] = biological target: Bifunctional protein GlmU (Mycobacterium tuberculosis, UniProt P9WMN3); assay: Inhibitors of Mycobacterial Glucosamine-1-phosphate acetyl transferase (GlmU). Secondary screen.; design: species or system Mycobacterium tuberculosis H37Rv
[8] = biological target: T2, Kappa-type opioid receptor (Homo sapiens, UniProt P41145); format: functional
Beta-galactosidase [9] = biological target: T3, Beta-galactosidase (Escherichia coli, UniProt Q8VNN2); assay: PubChem AID 485352; format: functional
Vero = Vero cell cytotoxicity, cytotoxicity control for flavivirus capping enzyme inhibitors (AID 588742); format: functional; details: Chlorocebus sabaeus
[10] = biological target: G-protein coupled receptor 55 (Homo sapiens, UniProt Q9Y2T6); assay: GPR55 antagonists blocking LPI-driven arrestin recruitment, primary screen, imaging, U2OS, beta-arrestin-GFP, LPI agonist (AID 2013); format: functional;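 note: antagonist potency measured as reduced agonist-driven arrestin aggregation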
Beta Lactamase = Beta Lactamase (Pseudomonas aeruginosa, UniProt Q932Y6); assay: beta-lactamase reporter inhibitor potency, dose response, artefact control for TLR9-MyD88 binding inhibitor project, BLA reporter cells, FRET fluorescence (AID 588341); format: cell-based;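 note: cell based assay in CHO-K1 cells stably expressing beta-lactamase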
CHO = assay: cytotoxicity in TLR9-MyD88 CHO cells, dose response, cytotoxicity control for TLR9-MyD88 binding inhibitor project, cell-based, luminescence (AID 588339); format: functional, hamster; details: Cricetulus griseus;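 note: CHO cells stably coexpressing TLR9 and MyD88 fusions from primary screen; compound exposure lasted 48 hours before viability readout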
[11] = biological target: T4, Delta-type opioid receptor (Homo sapiens, UniProt P41143); assay: HTS Image-Based Screen for Antagonists of the DOR Receptor. [Related pubchem assays (depositor defined):AID1777, AID1785, AID1786, AID2133]; format: functional
[12] = biological target: T4, Delta-type opioid receptor; assay: HTS Image-Based Screen for Agonists of the DOR Receptor. [Related pubchem assays (depositor defined):AID1777, AID1786, AID2133]; format: functional
Paired box protein Pax-8 = Paired box protein Pax-8 (Homo sapiens, UniProt Q06710); assay: inhibitors of PAX8-driven TPO luciferase reporter, dose response, RMG-I cells, cherry-pick (AID 687027); format: functional, cell-based;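 note: luciferase reporter driven by Pax8 target thyroperoxidase promoter measured by SteadyGlo luminescence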
[13] = biological target: T2, Kappa-type opioid receptor; format: functional; remark: listed apart in the source
Genome polyprotein = Genome polyprotein (dengue virus type 2, UniProt P29990); assay: Dengue-2 NS5 methyltransferase inhibitors, primary screen, biochemical, confirmation dose response (AID 588689); format: functional
Beta-galactosidase [14] = biological target: T3, Beta-galactosidase; format: functional
[15] = biological target: RNA-editing ligase 1, mitochondrial (Trypanosoma brucei brucei, UniProt P86926); assay: TbREL1 ligase inhibitors, dose response, biochemical, fluorescence, Trypanosoma brucei (AID 1117295); format: functional

COc1ccc(C#Cc2ccc([C@@H]3[C@@H](CO)N4C(=O)CN(C(=O)c5ccccc5)C[C@H]34)cc2)cc1
AC50 [1]: 1.35 µM (active)
AC50 [2]: 2.48 µM (active)
AC50 [3]: 1.63 µM (active)
AC50 [4]: 1.99 µM (active)
AC50 [5]: 33.4 µM (active)

Cc1c(Nc2cc(Cl)c3nonc3c2[N+](=O)[O-])c(=O)n(-c2ccccc2)n1C
IC50 [6]: 2.33 µM (active)
EC50 (Mu-type opioid receptor): > 32 µM (inactive)
IC50 [7]: 123 µM (active)
IC50 [8]: 4.14 µM (active)
EC50 (Beta-galactosidase [9]): > 40 µM (inactive)
CC50 (Vero): 12.7 µM (active)
IC50 [10]: 3.48 µM (active)
IC50 (Beta Lactamase): 6 µM (active)
IC50 (CHO): 1.53 µM (active)
IC50 [11]: > 32 µM (inactive)
EC50 [12]: > 32 µM (inactive)
AC50 (Paired box protein Pax-8): 8.97 µM (active)
IC50 [13]: 30 µM
IC50 (Genome polyprotein): 21.4 µM (active)
EC50 (Beta-galactosidase [14]): > 31.5 µM (inactive)

C#CCOCCOCCOCCNc1nc(N2CCN(C(=O)[C@H](CCCCN)n3cc([C@@H](N)C(C)CC)nn3)CC2)nc(N2CCN(C(=O)[C@H](CCCCN)n3cc([C@@H](N)C(C)CC)nn3)CC2)n1 (stereo partly specified)
IC50 [15]: > 96.6 µM (inactive)
